Source: patent US9017737B2, “Use of cannabinoids in combination with an anti-psychotic medicament” (priority 2008, dated 2015)

Legend:
rat isolated aortae = experiment: In vitro vascular studies by wire myography; details: for Time-dependent relaxation of the rat aorta: 2 h (120 min), pre-contracted aortae
[1] = system: small resistance mesenteric vessels and aorta; experiment: Chronic treatment of rats with CBD: vascular responses in isolated arteries; type: in vivo, rat; details: animals treated for 2 weeks
3T3L1 cells = experiment: Induction of adipocyte differentiation (Oil Red O staining); type: cell-based; details: treated for 8 days
rat/Wistar [2] = experiment: Aripiprazole-induced catalepsy; type: in vivo; details: ip, 1 hour after aripiprazole po
Protocol: (§1) Animals were subjected to a protocol as illustrated in FIG. 5.
(§2) Rats were made to fast from 6 PM on the day before the experiment until sacrifice. Rats were weighed and orally (PO) administered aripiprazole. […] For measurement of catalepsy, the observations were performed three times at each observation time point. The animals were forced to hang with their right forepaw on the upper edge of a steel can (diameter: 6 cm, height: 10 cm). When the animals remained in the unnatural vertical position for 30 seconds or longer, they were judged to be positive responders for catalepsy.

rat/Wistar [3] = experiment: Aripiprazole-induced ptosis; type: in vivo; details: ip, 1 hour after aripiprazole po
Protocol: as §1, §2
The measurement of ptosis was performed as follows. Each animal was individually taken from the home cage and put on the experimenter's hand to observe the eyes. The ptosis score was determined for both eyes as described below, and the scores for the two eyes were added to obtain the total score (maximum score, 8) • 0: Normal • 1: Mild ptosis (upper eyelid covered ¼ of the eye) • 2: Moderate ptosis (upper eyelid covered ½ of the eye) • 3: Severe ptosis (upper eyelid covered ¾ of the eye) • 4: Complete ptosis (upper eyelid covered the entire eye)

PPARγ = molecular target: T1, PPARγ (Homo sapiens, UniProt P37231); experiment: Transcriptional transactivation (luciferase reporter gene) assay; type: cell-based; details: any concentration tested; in words
T1 construct: expressed in transfected cells
T1 sequence (P37231 1-505): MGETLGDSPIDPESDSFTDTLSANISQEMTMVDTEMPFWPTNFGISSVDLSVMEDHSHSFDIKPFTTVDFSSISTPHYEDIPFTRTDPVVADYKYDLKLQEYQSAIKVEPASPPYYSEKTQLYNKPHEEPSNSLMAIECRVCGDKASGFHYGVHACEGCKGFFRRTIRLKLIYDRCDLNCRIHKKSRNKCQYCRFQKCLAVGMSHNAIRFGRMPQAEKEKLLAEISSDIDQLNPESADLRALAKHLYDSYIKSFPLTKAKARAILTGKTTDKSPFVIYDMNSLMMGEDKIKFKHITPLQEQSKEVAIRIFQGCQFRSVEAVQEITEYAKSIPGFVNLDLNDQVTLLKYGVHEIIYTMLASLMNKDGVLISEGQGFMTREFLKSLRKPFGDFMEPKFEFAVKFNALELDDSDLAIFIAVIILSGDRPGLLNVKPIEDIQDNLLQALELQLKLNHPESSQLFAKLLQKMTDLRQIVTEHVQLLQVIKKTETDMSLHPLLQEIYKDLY
T1 sequence (P19793 1-462 partner): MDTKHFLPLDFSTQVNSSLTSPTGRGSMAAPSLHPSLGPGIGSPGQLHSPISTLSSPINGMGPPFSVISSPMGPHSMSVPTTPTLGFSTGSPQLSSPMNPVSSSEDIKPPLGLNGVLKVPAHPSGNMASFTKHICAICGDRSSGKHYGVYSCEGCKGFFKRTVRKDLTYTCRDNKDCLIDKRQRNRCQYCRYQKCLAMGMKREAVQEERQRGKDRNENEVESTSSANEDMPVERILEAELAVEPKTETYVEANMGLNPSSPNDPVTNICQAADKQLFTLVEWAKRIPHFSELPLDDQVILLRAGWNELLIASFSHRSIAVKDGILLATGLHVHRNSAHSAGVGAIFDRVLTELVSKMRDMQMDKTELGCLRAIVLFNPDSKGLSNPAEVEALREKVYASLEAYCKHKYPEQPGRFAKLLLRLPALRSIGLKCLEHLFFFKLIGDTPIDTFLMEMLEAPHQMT
Protocol: In vitro vascular studies were carried out in rat isolated aortae by wire myography. PPARγ activation was investigated using reporter gene assays, a PPARγ competition-binding assay and an adipogenesis assay.

`C=C(C)[C@@H]1CCC(C)=C[C@H]1c1c(O)cc(CCCCC)cc1O` [CBD, cannabidiol] was tested, and the “Time-dependent relaxation of the rat aorta” value (rat isolated aortae; 10 μM) was 69.7±4.0 % relaxation, the “Residual relaxation (vasorelaxant effect minus the vasorelaxant effect of vehicle and time)” value (rat isolated aortae; 10 μM, after 2 h) was 50.1±3.3 % relaxation and the “Basal tension over time” value (rat isolated aortae; 2 h) was -0.03 ± 0.01 g. The “Time-dependent vascular responses with the CB1 receptor antagonist AM251” value (rat isolated aortae; AM251 1 μM) was “did not significantly affect”, the “Residual vasorelaxant effect in the presence of the PPARγ receptor antagonist GW9662” value (rat isolated aortae; GW9662 1 μM, after 1 h of incubation) was “significantly reduced” and the “Residual vasorelaxant effect in the presence of the nitric oxide synthase inhibitor L-NAME” value (rat isolated aortae; L-NAME 300 μM, vs control conditions) was “not different”. The “Vascular response over time after pre-treating arteries with PTX or capsaicin” value (rat isolated aortae; PTX 200 ng ml−1, 2 h or capsaicin 10 μM, 1 h) was “no effect”, the “Residual vasorelaxant effects with the CB2 receptor antagonist SR144528” value (rat isolated aortae; SR144528 1 μM, between 45 min to 90 min) was “significantly inhibited” and the “Potency and maximal contractile response to the re-introduction of calcium” value (rat isolated aortae; calcium free, high potassium Krebs-Hensleit solution, 1 μM to 30 μM, concentration-dependent) was “significantly reduced”. The “Vasorelaxant effect in arteries contracted with a high potassium buffer” value (rat isolated aortae; compared with control) was “no difference”, the “Vasorelaxant effect in vessels where tone was induced with U46619 in calcium free buffer” value (rat isolated aortae; compared with control) was “significantly blunted” and the “Vasorelaxant effect in endothelium-denuded and control aortae” value (rat isolated aortae; endothelium-denuded) was “similar”. For the same compound, the “Maximal response to methoxamine in the aorta” value [1] was 1.63±0.21 g increase tension, the “Potency of acetylcholine (pEC50) in the aorta” value [1] was 5.37±0.40 and the “Potency of methoxamine (pEC50), small resistance mesenteric vessels” value [1] was 5.79±0.10. For the same compound, the “Differentiation of 3T3 L1 cells to adipocytes (fat droplet accumulation, Oil Red O)” value (3T3L1 cells) was “signs of fat droplet accumulation were apparent at all concentrations tested”, the “Aripiprazole-induced catalepsy in rats” value (rat/Wistar [2]; 120 mg/kg) was “significantly decreased” and the “Aripiprazole-induced ptosis in rats” value (rat/Wistar [3]; 120 mg/kg) was “significantly decreased”.
In the case of `CCCc1cc(O)c2c(c1)OC(C)(C)[C@@H]1CCC(C)=C[C@@H]21` [THCV, tetrahydrocannabivarin], the “Time-dependent relaxation of the rat aorta” value (rat isolated aortae; 10 μM) is reported as 28.7±4.6 % relaxation, the “Effect on tone in pre-contracted aortae” value (rat isolated aortae; 10 μM, in words) is reported as “no effect on tone until after 105 minutes” and the PPARγ transcriptional activity (PPARγ) is reported as “no effect”. For the same compound, the “Aripiprazole-induced catalepsy in rats” value (rat/Wistar [2]; 60 mg/kg) was “significantly decreased” and the “Aripiprazole-induced ptosis in rats” value (rat/Wistar [3]; 60 mg/kg) was “significantly decreased”.
In the case of `COc1ccc(CCN(C)CCCC(C#N)(c2ccc(OC)c(OC)c2)C(C)C)cc1OC` (stereo not drawn) [verapamil, reference compound], the “Vasorelaxation of pre-constricted vessels” value (rat isolated aortae; more rapid onset than CBD) is reported as “significant vasorelaxation”.
